# Measured values: US20150177202A1, “ODOR THRESHOLD TEST” (University of Tennessee Research Foundation, priority 2013, published 2015)
# “And” between values parts separate entries of the source, which are not always exact repeats. Equal entries are not always repeated.
# Columns and labels:
# olfactory system = assay: WUTC Odor Threshold Test (yes-no detection of odorant dilutions in water, signal detection analysis); format: in vivo, human; parameters: Estimated odorant threshold, Mean / Mean estimated threshold / Estimated odorant threshold, Minimum: unit not given here; details: for Threshold: combined trials of all 33 subjects, logistic regression, p=0.5; for Estimated threshold compared with literature value: in vivo; for Estimated odorant threshold, Maximum: maximum of individual participant thresholds, in ppm; for Estimated odorant threshold, Mean: mean of individual participant thresholds; for Estimated odorant threshold, Minimum: minimum of individual participant thresholds
# Text: The present study involved the creation and study of a new test of olfactory ability, deemed the Wheeler University of Tennessee, Chattanooga (WUTC) Odor Threshold Test. This test was developed building upon the methodology behind signal detection theory as it allowed for multiple measures of olfactory ability to be calculated from a single test. These measures are sensitivity, response-bias, and threshold. Unlike currently available threshold tests, the WUTC Odor Threshold Test utilizes a randomized, multiple odor administration along with the presentation of blank concentrations.
# A total of thirty three participants (N=33), collected from the UTC campus, were administered the WUTC threshold test.
# To make the test, odorant molecules were first dissolved in a purified H2O solvent following their individual levels of solubility to create standard solutions. These standards were the highest concentration for each odorant and the base from which all successive dilutions were made. Liquid odorants ethanol, pinene, and isoamyl acetate were diluted by volume whereas para-cresol and vanillin were diluted by mass. Each standard was rounded to the nearest μL. A total of nine concentrations were made from each standard solution and diluted at a ratio of 1:2. The highest concentration for each odor as well as concentration ranges were chosen based on literature threshold values and a small, preliminary testing period. Solutions (10 mL) of each odorant were diluted and contained in sterilized and dried glass vials with black, screw-top lids (see FIG. 12).
# Blanks were made using 10 mL of the same purified H2O used as a solvent for the other odorants. The final test contained 45 vials with odorant concentrations and nine blanks for a total of 54 vials. Tests were remade after either one month or ten administrations had been reached to avoid any amount of loss of odor strength that could result from extended shelf time or exposure to air during administrations. Before reproducing the test, vials underwent sterilization and drying procedures.
# Each subject was instructed to complete the provided demographic form (see below). […] Each participant was then seated in a cushioned, high backed chair facing away from a table where each testing vial was placed. In a brief tutorial to the test, subjects were instructed that they would be presented with a number of vials, some containing odors and some not, one at a time. Subjects were then told that they would only be required to smell the contents of the vial and verbally give a “yes” or “no” answer as to whether they detected anything. […] Once the subject felt comfortable with the instructions presented in this tutorial, the actual test was started.
# Following a randomly generated number sequence for each subject, a seated test administrator would select the correspondingly numbered test vial for each trial, place it in tongs, and hand it to a second administrator that, like the participant, was facing away from the administration table. […] The “yes” or “no” response given by the subject was recorded by the first administrator and the vial and tongs were returned to him/her by the second administrator. This procedure was repeated for each of the odorant tubes in the test with each tube presented to the participant twice.
# trigeminal nerve = details: cited from earlier work
# [1] = test system: premature newborn infants; details: olfactory stimulation; cited from earlier work
# [2] = concentration 1 (lowest), combined participant trials
# [3] = concentration 2, combined participant trials
# [4] = concentration 3, combined participant trials
# [5] = concentration 4, combined participant trials
# [6] = concentration 5, combined participant trials
# [7] = concentration 6, combined participant trials
# [8] = concentration 7, combined participant trials
# [9] = concentration 8, combined participant trials
# [10] = concentration 9 (highest), combined participant trials
Structure (SMILES),Threshold (olfactory system) [ppm],Mean A′ (olfactory system; [2]),Mean d′ (olfactory system; [2]),Mean A′ (olfactory system; [3]),Mean d′ (olfactory system; [3]),Mean A′ (olfactory system; [4]),Mean d′ (olfactory system; [4]),Mean A′ (olfactory system; [5]),Mean d′ (olfactory system; [5]),Mean A′ (olfactory system; [6]),Mean d′ (olfactory system; [6]),Mean A′ (olfactory system; [7]),Mean d′ (olfactory system; [7]),Mean A′ (olfactory system; [8]),Mean d′ (olfactory system; [8]),Mean A′ (olfactory system; [9]),Mean d′ (olfactory system; [9]),Mean A′ (olfactory system; [10]),Mean d′ (olfactory system; [10]),Estimated threshold compared with literature value (olfactory system),other results
"CCO [Ethanol, ethanol]",263.750,0.757,0.898,0.716,0.704,0.514,0.035,0.741,0.819,0.561,0.16,0.766,0.941,0.668,0.513,0.789,1.066,0.804,1.154,at or within literature values,"Mean estimated threshold (olfactory system; African Americans): 112.069; Mean estimated threshold (olfactory system; Caucasians): 344.968; Estimated odorant threshold, Maximum (olfactory system): 942.747; Estimated odorant threshold, Mean (olfactory system): 251.808; Estimated odorant threshold, Minimum (olfactory system): 1.057; Mean estimated threshold (olfactory system; participants with headaches (N=8)): 396.631; Mean estimated threshold (olfactory system; participants without headaches (N=12)): 155.260; Concentration causing irritation of the trigeminal nerve (trigeminal nerve): over 1000 ppm"
"CC(=O)OCCC(C)C [Isoamyl Acetate, isoamyl acetate]",38.274,0.407,−0.249,0.424,−0.198,0.424,−0.198,0.478,−0.053,0.716,0.704,0.716,0.704,0.796,1.11,0.826,1.299,0.781,1.024,below its literature value,"Estimated odorant threshold, Maximum (olfactory system): 65.102; Estimated odorant threshold, Mean (olfactory system): 13.935; Estimated odorant threshold, Minimum (olfactory system): 0.513"
"CC1=CCC2CC1C2(C)C [Pinene, L-α-pinene]",275.598,0.407,−0.249,0.757,0.898,0.561,0.16,0.514,0.035,0.668,0.513,0.724,0.742,0.847,1.458,0.901,2.097,0.875,1.72,greater than values found,"Estimated odorant threshold, Maximum (olfactory system): 795.338; Estimated odorant threshold, Mean (olfactory system): 251.225; Estimated odorant threshold, Minimum (olfactory system): 0.778; Activity as an irritant (trigeminal nerve): nearly inactive as an irritant"
"COc1cc(C=O)ccc1O [Vanillin, vanillin]",112.426,0.39,−0.302,0.478,−0.053,0.531,0.077,0.625,0.359,0.561,0.16,0.678,0.55,0.781,1.024,0.796,1.11,0.888,1.885,greater than values found,"Effect on apnea [1]: significantly prevent apnea; Estimated odorant threshold, Maximum (olfactory system): 339.932; Estimated odorant threshold, Mean (olfactory system): 119.978 and 19.978; Estimated odorant threshold, Minimum (olfactory system): 2.619; Mean estimated threshold (olfactory system; subjects with asthma (N=8)): 207.137; Mean estimated threshold (olfactory system; subjects without asthma (N=18)): 86.084"
"CCCCO [n-butanol, reference compound]",,,,,,,,,,,,,,,,,,,,,Concentration causing irritation of the trigeminal nerve (trigeminal nerve): approximately 200 ppm
Cc1ccc(O)cc1 [para-cresol],1.058,0.356,−0.416,0.561,0.16,0.614,0.32,0.614,0.32,0.313,0.475,0.804,1.154,0.847,1.458,0.84,1.403,0.908,2.246,at or within literature values,"Estimated odorant threshold, Maximum (olfactory system): 5.28; Estimated odorant threshold, Mean (olfactory system): 1.340; Estimated odorant threshold, Minimum (olfactory system): 0.005"
